Laboratory results: paper PMC9133015 (Nature Communications, 2022)
pIC50: −log10 of the molar value. “And” between values parts separate entries of the source, which are not always exact repeats. Equal values may be shown once. Read-outs that look alike come from different tables or passages of the source.

Target: T1, DYRK2 (Homo sapiens, UniProt Q92630)
T1 construct: purchased Reaction Biology Corporation (assay service)
T1 sequence (Q92630 1-601): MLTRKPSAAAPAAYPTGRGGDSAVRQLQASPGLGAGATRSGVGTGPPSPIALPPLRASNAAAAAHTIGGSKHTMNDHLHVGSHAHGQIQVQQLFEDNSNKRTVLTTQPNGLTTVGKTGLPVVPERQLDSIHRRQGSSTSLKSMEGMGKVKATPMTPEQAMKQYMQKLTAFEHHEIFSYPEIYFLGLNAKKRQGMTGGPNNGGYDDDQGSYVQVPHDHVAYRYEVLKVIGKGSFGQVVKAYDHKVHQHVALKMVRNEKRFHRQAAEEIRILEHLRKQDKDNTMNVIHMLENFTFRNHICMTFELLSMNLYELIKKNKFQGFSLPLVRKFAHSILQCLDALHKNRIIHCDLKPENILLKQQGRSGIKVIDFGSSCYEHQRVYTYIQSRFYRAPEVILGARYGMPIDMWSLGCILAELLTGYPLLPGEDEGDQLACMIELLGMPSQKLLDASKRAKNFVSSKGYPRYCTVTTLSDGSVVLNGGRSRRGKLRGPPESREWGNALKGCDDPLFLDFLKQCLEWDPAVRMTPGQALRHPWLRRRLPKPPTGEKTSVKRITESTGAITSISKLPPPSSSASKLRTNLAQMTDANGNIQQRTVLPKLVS
Assay: DYRKs kinase activity assay (33P-ATP, DYRKtide substrate): DYRK2
Format: biochemical
Conditions: for % Inhibition / inhibition at 0.00457247 µM / inhibition at 0.0137174 µM / inhibition at 0.0411523 µM / inhibition at 0.123457 µM / inhibition at 0.37037 µM / inhibition at 1.11111 µM / inhibition at 3.33333 µM / inhibition at 10 µM / inhibition at 0.000508053 µM / inhibition at 0.00152416 µM: DYRK2 kinase, duplicate values; for inhibition at 0.0137174 µM / inhibition at 0.0411523 µM / inhibition at 0.123457 µM / inhibition at 0.37037 µM / inhibition at 1.11111 µM / inhibition at 3.33333 µM / inhibition at 10 µM / inhibition at 0.00152416 µM: read-out: % Inhibition; for pIC50: read-out: DYRK2 IC50; for IC50: Supplementary Table 1, read-out: IC50 (μM), DYRK2 kinase

| SMILES | % Inhibition (Conc. 0.000508053 µM) | % Inhibition (Conc. 0.00152416 µM) | % Inhibition (Conc. 0.00457247 µM) | inhibition at 0.00457247 µM (Conc. 0.00457247 µM) [%] | % Inhibition (Conc. 0.0137174 µM) | inhibition at 0.0137174 µM (Conc. 0.0137174 µM) [%] | % Inhibition (Conc. 0.0411523 µM) | inhibition at 0.0411523 µM (Conc. 0.0411523 µM) [%] | % Inhibition (Conc. 0.123457 µM) | inhibition at 0.123457 µM (Conc. 0.123457 µM) [%] | % Inhibition (Conc. 0.37037 µM) | inhibition at 0.37037 µM (Conc. 0.37037 µM) [%] | % Inhibition (Conc. 1.11111 µM) | inhibition at 1.11111 µM (Conc. 1.11111 µM) [%] | % Inhibition (Conc. 3.33333 µM) | inhibition at 3.33333 µM (Conc. 3.33333 µM) [%] | % Inhibition (Conc. 10 µM) | inhibition at 10 µM (Conc. 10 µM) [%] | IC50 [µM] | other results |
| --- | --- | --- | --- | --- | --- | --- | --- | --- | --- | --- | --- | --- | --- | --- | --- | --- | --- | --- | --- | --- |
| Cc1nc2ccc(-c3nc(Nc4ccc(C(=O)N5CCNCC5)cn4)ncc3F)cc2s1.Cl [Compound 24] | 2.20% and 10.58% | 4.62% and 14.25% | 24.52% | 19.2 | 39.86% | 35.4 | 60.50% | 61 | 75.45% | 73 | 85.34% | 86.1 | 90.57% | 92 | 94.68% | 95 | 98.21% | 97 | – | pIC50: 7.57 |
| CCN1CCN(Cc2ccc(Nc3ncc(F)c(-c4ccc5ncsc5c4)n3)nc2)CC1 [Compound 16] | 0.29% and 3.35% | -2.64% and 1.62% | 1.68% and 3.59% | – | 8.22% | 6.53 | 26.26% | 23.1 | 48.52% | 47.2 | 63.31% | 64.2 | 68.60% | 68.6 | 73.48% | 73.6 | 77.29% | 76.9 | – | – |
| CC(=NNc1nc2c(c(=O)n(Cc3ccccc3)c(=O)n2C)n1Cc1ccccc1)c1ccccc1 [Compound 5] | 1.24% and 7.59% | -1.11% and 5.39% | 11.00% and 16.72% | – | 2.77% and 9.02% | – | 5.65% and 11.72% | – | 2.54% and 8.81% | – | 4.47% and 10.61% | – | 17.84% and 23.14% | – | 28.55% and 33.16% | – | 29.52% and 31.99% | – | > 10 | – |
| Cl.Fc1cnc(Nc2ccc(CN3CCNCC3)cn2)nc1-c1ccc2ncsc2c1 [Compound 18] | – | – | – | -2.27 | 12.10% | 9.69 | 21.24% | 19 | 36.98% | 36.4 | 58.36% | 56 | 75.32% | 75.1 | 88.49% | 88.2 | 94.11% | 93.9 | – | inhibition at 0.000508053 µM (Conc. 0.000508053 µM): -3.69%; inhibition at 0.00152416 µM (Conc. 0.00152416 µM): -1.56% |
| CC(C)COc1cccc(-c2cc(C(=O)Nc3sc(C(C)C)cc3C(N)=O)c3ccccc3n2)c1 [Compound 9] | 0.43% and 0.42% | 1.70% and 1.66% | -1.24% and 1.19% | – | -4.62% and -2.11% | – | -1.40% and 1.03% | – | 2.80% and 5.13% | – | 6.00% and 8.26% | – | 12.51% and 17.02% | – | 18.00% and 19.98% | – | 35.11% and 36.69% | – | > 10 | – |
| O=C(CSc1nnc2sc3ccccc3n12)N1CCN(C(=O)CSc2nnc3sc4ccccc4n23)CC1 [Compound 4] | 0.98% and -1.30% | 14.00% and 9.63% | 3.52% and 1.28% | – | 7.11% and 4.92% | – | 13.04% and 8.66% | – | 25.55% and 23.66% | – | 22.22% and 20.28% | – | 26.61% and 24.74% | – | 20.66% and 23.29% | – | 27.83% and 25.98% | – | > 10 | – |
| COc1cc(-c2nnc(CSc3nc4c(OC)ccc(OC)c4[nH]3)o2)cc(OC)c1OC [Compound 15] | -1.53% and -4.09% | -4.76% and -6.22% | -1.13% and -0.37% | – | -10.53% and -12.16% | – | -9.17% and -11.37% | – | -2.00% and -9.98% | – | -8.29% and -9.76% | – | -3.66% and -9.01% | – | 0.93% and -1.24% | – | 16.42% and 14.23% | – | > 10 | – |
| Cn1c(CN2CCN(C(=O)C3CCCCC3)CC2)nc2cc(NC(=O)Nc3ccccc3)ccc21 [Compound 13] | 1.82% and 2.74% | 3.66% and 2.25% | 7.30% and 8.12% | – | 10.53% and 13.70% | – | 5.97% and 6.86% | – | 12.38% and 8.48% | – | 14.58% and 13.01% | – | 21.59% and 24.67% | – | 29.05% and 32.01% | – | 31.39% and 34.31% | – | > 10 | – |
| CCN1CCN(C(=O)c2ccc(Nc3ncc(F)c(-c4ccc5nc(C)sc5c4)n3)nc2)CC1 [Compound 23] | 9.47% | 18.47% | 32.91% | 32.2 | 41.99% | 41.4 | 56.16% | 55.9 | 70.45% | 70.4 | – | 84.9 | – | 92.2 | – | 95.8 | – | 96.2 | – | inhibition at 0.000508053 µM (Conc. 0.000508053 µM): 9.2%; inhibition at 0.00152416 µM (Conc. 0.00152416 µM): 20.2%; pIC50: 7.66 |
| CC(C)c1ccc2c(c1)C(N1CCN(CCc3ccc(F)cc3)CC1)Cc1ccc(F)cc1S2 (centres unmarked) [Compound 1] | -1.87% and -4.38% | -4.34% and -6.85% | -8.65% and -6.11% | – | -12.64% and -10.09% | – | -8.55% and -6.02% | – | -2.02% and 0.35% | – | 1.52% and 4.04% | – | 8.35% and 5.81% | – | 1.80% and 0.0379% | – | 28.07% and 27.88% | – | > 10 | – |
| Cl.Fc1cnc(Nc2ccc(N3CCNCC3)cn2)nc1-c1ccc2ncsc2c1 [Compound 21] | 9.05% | 8.33% | 11.99% | 13.8 | 16.84% | 14 | 38.81% | 36.7 | 56.81% | 55.4 | 75.73% | 74 | 88.57% | 86.9 | 94.50% | 95.3 | 95.74% | 96.6 | – | inhibition at 0.000508053 µM (Conc. 0.000508053 µM): 8.81%; inhibition at 0.00152416 µM (Conc. 0.00152416 µM): 12.2%; pIC50: 7.07 |
| COc1ccc(C2CC(c3ccc(Cl)cc3)=NN2c2ccc(C=NNc3ccccc3)cc2)cc1 (centres unmarked) [Compound 3] | 1.91% and 4.22% | 6.35% and 8.58% | 2.63% and 4.93% | – | 8.54% and 10.71% | – | 6.26% and 8.49% | – | 10.47% and 12.60% | – | 12.78% and 14.86% | – | 20.14% and 19.70% | – | 22.94% and 20.08% | – | 22.88% and 24.74% | – | > 10 | – |
| O=C(c1cccc(Cn2cc(Br)c([N+](=O)[O-])n2)c1)N1CCN(C(=O)c2ccco2)CC1 [Compound 8] | -2.60% and -0.07% | -3.65% and -2.08% | -3.85% and -2.28% | – | -16.34% and -14.56% | – | -10.92% and -10.74% | – | -6.09% and -4.48% | – | -6.00% and -2.89% | – | -5.16% and -3.57% | – | 2.31% and 3.77% | – | 17.16% and 18.38% | – | > 10 | – |
